Measurements from US7314864B1, “Humanin, a polypeptide suppressing neuronal death” (Keio University, priority 1999, dated 2008).
No end group written: not given here.

Columns and labels:
[1] = tested on: F11 cells transfected with V642I APP cDNA; experiment: V642I APP-induced F11 cell death, trypan blue exclusion assay; assay type: cell-based
Procedure: (§1) F11 cells (Platika, D. et al. (1985) Proc. Natl. Acad. Sci. U.S.A. 82, 3499-3503; Yamatsuji, T. et al. (1996) Science 272, 1349-1352) were cultured in HamF-12 media containing 18% fetal bovine serum (FBS) and antibiotics. 7×10^4/well of F11 cells were seeded into a 6-well plate; cultured in HamF-12 containing 18% FBS for 12 to 16 hours; transfected 3 hours with plasmids encoding FAD genes and plasmids encoding HN (pHN, and such) by lipofection in the absence of serum (1 μg of FAD cDNA expression plasmid, 1 μg of HN cDNA expression plasmid, 4 μl of LipofectAMINE, 8 μl of Plus reagent); and then, were cultured for 2 hours in HamF-12 media containing 18% FBS. Then, culture media were exchanged with HamF-12 media containing 10% FBS; and the cells were cultured for additional 67 hours. 72 hours after transfection, cell death was measured by trypan blue exclusion assay. Experiments using synthetic HN polypeptides were conducted as follows: F11 cells (at 7×10^4/well in a 6-well plate) were transfected 3 hours with FAD genes in the absence of serum, as mentioned above; after cultivation for 2 hours in HamF-12 media containing 18% FBS, the cells were cultured for 67 hours in HamF-12 media containing 10% FBS with various concentrations of HN polypeptides; and cell death was measured by trypan blue exclusion assay. ALS-associated mutant cDNAs of SOD1 were also similarly transfected, and examined for their neurotoxicity.
(§2) Trypan blue exclusion assay was performed as follows. Without prewashing, the cells were suspended with gentle pipetting into a serum-free media. 50 μl of 0.4% trypan blue solution (Sigma, Cat. #T-8154) were added (final concentration of 0.08%) to 200 μl cell suspension, and the suspension was mixed at room temperature. Within 3 minutes of the trypan blue solution addition, stained cells were counted. Cell mortality was determined [100-cell survival rate (%)] based on the stained cell count. LDH assay was performed using a kit (LDH-Cytotoxic Test; Wako Pure Chemical Industries, Cat. #299-50601) by sampling 6 μl of media in which neurons were cultured. Calcein staining was performed as described in literature (Bozyczko-Coyne, D. et al. (1993) Journal of Neuroscience Methods 50, 205-216). Specifically, 6 μM Calcein-AM (3′, 6′-Di-(O-acetyl)-2′-7′-bis[N,N-bis(carboxymethyl)aminomethyl]fluorescein, tetraacetoxymethyl ester; Dojindo, Cat. #349-07201) was added to the neurons; and 30 minutes or longer after Calcein-AM treatment, fluorescence (ex=490 nm, em=515 nm) was observed by fluorescence microscopy, and measured by a spectrometer. Specific fluorescence was calculated by subtracting basal fluorescence from total fluorescence. Basal fluorescence was assigned to be the value calculated from linear trypan blue positivity-fluorescence intensity relationship, corresponding to 100% trypan blue positivity.

[2] = tested on: F11 cells transfected with FAD genes (V642I APP, NL-APP, M146L PS-1, N141I PS-2); experiment: FAD gene-induced F11 cell death, trypan blue exclusion assay; assay type: cell-based, rat/mouse hybrid; conditions: for suppression of FAD gene-induced cell death: 10 nM polypeptide; for neuroprotective activity relative to HNG: all types of cell death (FAD genes, Aβ)
Procedure: as §1, §2

[3] = tested on: primary cultured cortical neurons treated with Aβ1-43; experiment: Aβ1-43-induced cell death of primary cultured cortical neurons, trypan blue exclusion assay; assay type: cell-based; conditions: 25 μM Aβ1-43, confirmed by LDH release and Calcein staining
Procedure: Primary culture of mouse cortical neurons was performed in poly-D-lysine-coated 24-well plates (Sumitomo Bakelite) in the absence of serum and in the presence of N2 supplement, as described in literature (Ecksioglu, Y. Z. et al. (1994) Brain Res. 644, 282-90). The purity of neurons prepared according to the method was >98%. The prepared neurons (1.25×10^5/well, 250 μl media/well) were preincubated in the absence or presence of 10 nM or 10 μM sHN polypeptides for 16 hours; and were treated with 25 μM Aβ1-43 in the absence or presence of sHN polypeptides at the same concentrations for 24 to 72 hours. Since primary cultured neurons are damaged even by temporary dryness during medium exchange, treatment of the cells by Aβ1-43 was performed as follows. First, half of the volume of the old medium (125 μl) was discarded. Then, 125 μl of pre-warmed fresh medium containing 50 μM Aβ1-43 and sHN with a concentration indicated above were added to the culture.
as §2

[4] = tested on: F11/EcR cells transfected with ecdysone-inducible Q79 plasmid; experiment: Polyglutamine Q79-induced F11/EcR cell death (ecdysone-inducible), trypan blue exclusion assay; assay type: cell-based; conditions: 1 μM polypeptide, 72 hours
Procedure: F11/EcR cell experiment using ecdysone was conducted as follows: F11/EcR cells were seeded at 7×10^4/well into a 6-well plate; cultured for 12 to 16 hours in HamF-12 media containing 18% FBS; and were similarly transfected in the absence of serum for 3 hours with 1 μg of ecdysone-inducible plasmid alone, or with 1 μg of HN-encoding plasmid, as mentioned above. After culturing for 12 to 16 hours in HamF-12 media containing 18% FBS, the cells were cultured for 2 hours in HamF-12 media containing 10% FBS, then ecdysone (Ponasterone) was added to the media (final concentration of 40 μM). Cell death was measured 72 hours after ecdysone treatment. Experiments using synthetic HN polypeptides were conducted as follows: cells were similarly transfected for 3 hours with FAD genes in the absence of serum; cultured for 12 to 16 hours in HamF-12 media containing 18% FBS; cultured for 2 hours in HamF-12 media containing 10% FBS and various concentrations of HN polypeptide; and then, 40 μM Ponasterone was added to the media. Cell death was measured by trypan blue exclusion assay after 72 hours from the ecdysone treatment. HD/SCA-associated Q79 cDNAs were also similarly transfected, and the neurotoxicity was tested.
(§3) Trypan blue exclusion assay was performed as follows. […] Within 3 minutes of the trypan blue solution addition, stained cells were counted. Cell mortality was determined [100-cell survival rate (%)] based on the stained cell count. […] Specifically, 6 μM Calcein-AM (3′, 6′-Di-(O-acetyl)-2′-7′-bis[N,N-bis(carboxymethyl)aminomethyl]fluorescein, tetraacetoxymethyl ester; Dojindo, Cat. #349-07201) was added to the neurons; and 30 minutes or longer after Calcein-AM treatment, fluorescence (ex=490 nm, em=515 nm) was observed by fluorescence microscopy, and measured by a spectrometer. Specific fluorescence was calculated by subtracting basal fluorescence from total fluorescence. Basal fluorescence was assigned to be the value calculated from linear trypan blue positivity-fluorescence intensity relationship, corresponding to 100% trypan blue positivity.

[5] = tested on: F11 cells transfected with SOD1 mutants (A4T, G85R, G93A); experiment: ALS-associated SOD1 mutant-induced F11 cell death, trypan blue exclusion assay; assay type: cell-based, rat/mouse hybrid; conditions: 100 μM polypeptide
Procedure: as §1
as §3, with “Basal fluorescence was assigned to be the value calculated from linear trypan blue positivity-fluorescence intensity relationship, corresponding to 100% trypan blue positivity.” left out

Row | Substance | effect on Aβ1-43-induced cell death ([3]; 10 nM polypeptide) | effect on Q79-induced cell death, synthetic polypeptide [4] | effect on SOD1 mutant-induced cell death, synthetic polypeptide [5] | suppression of V642I APP-induced cell death ([1]; 10 nM polypeptide) | suppression of FAD gene-induced cell death [2] | neuroprotective activity relative to HNG [2] | other results
1 | MAPRGFSCLLLLTGEIDLPVKRRA [sHNG] | completely protected | Extensive cell death | couldn't be suppressed | – | – | – | IC50 ([1]; 72 h): ~0.1 nM; concentration giving complete antagonizing effect on V642I APP-induced cell death ([1]; synthetic polypeptide, 72 hours): ≤ 10 nM; concentration showing significant or sufficient neuroprotective action [2]: about 1 nM; concentration giving complete suppression of cell death ([2]; NL-APP, M146L PS-1, N141I PS-2): ≤ 10 nM; concentration giving complete antagonism/rescue of neuronal death ([2]; all four types of FAD genes): ≤ 10 nM
2 | SEQ ID NO: 48: HNG with Cys at position 8 substituted with Lys (MAPRGFSKLLLLTGEIDLPVKRRA) | suppressed cell death | – | – | significant suppression activity | inhibited neuronal death | comparable to the original HNG polypeptide | –
3 | MAPRGFSALLLLTSEIDLPVKRRA [sHNA] | – | Extensive cell death | couldn't be suppressed | – | – | – | cell mortality (%) ([1]; V642I APP cDNA, treated with 10 μM sHN polypeptides, 72 hours, mean ±S.D.): 52.5 ± 3.0%; suppression of V642I APP-induced cell death ([1]; concentrations up to 100 μM): did not significantly suppress; antagonism of cell death by FAD genes ([2]; NL-APP, M146L PS-1, N141I PS-2, up to 100 μM): did not antagonize; effect on Aβ1-43-induced cell death ([3]; 10 μM polypeptide): did not show any effect
4 | HN-17: 17 amino acids from Pro3 to Pro19 of Humanin (PRGFSCLLLLTSEIDLP; artificially synthesized sequence (deltaN2 deltaC5-Humanin; HN-17 )) | – | – | – | – | – | – | antagonizing activity on FAD gene-induced cell death ([2]; 10 μM polypeptide, four FAD genes): sufficient antagonizing activity; activity to suppress cell death compared to the original HN ([2]; M146L PS-1): slightly lower activity; concentration showing sufficient protective action ([2]; any of the four FAD genes, dose-response): low μM
5 | SEQ ID NO: 54: HNG with Cys at position 8 substituted with Arg (MAPRGFSRLLLLTGEIDLPVKRRA) | suppressed cell death | – | – | significant suppression activity | inhibited neuronal death | comparable to the original HNG polypeptide | –
